Assay results taken from patent US20240287108A1, “nSMASE2 INHIBITOR PRODRUGS WITH ENHANCED ORAL AND BRAIN EXPOSURES” (The Johns Hopkins University, priority 2021, published 2024).
“Also recorded” adds a separate entry of the source.

Experiments:
[1] = in vitro stability in CES1−/− mouse liver homogenates; assay type: in vitro ADME; settings: CES1−/− mouse liver homogenate, 10 μM, 37° C.
Protocol: All synthesized prodrugs were next screened for in vitro stability in carboxylesterase 1 knockout (CES1^−/−) mouse plasma, as well as CES1^−/− mouse brain and liver homogenates (Table 2-1). We have previously reported that CES1^−/− mouse model recapitulates human prodrug metabolism.
For the tissue homogenates, washed tissues were diluted 10-fold in 0.1 M potassium phosphate buffer and homogenized using a probe sonicator. To evaluate the stability of the intact prodrug over time, each of the crude homogenates and plasma were aliquoted to 1 mL and then spiked with a final assay concentration of 10 μM of each prodrug followed by incubation in an orbital shaker at 37° C. for 1 h (in triplicate). Sample from each incubation at predetermined time points (0 min, and 1 h) was quenched with three volumes of acetonitrile containing the internal standard (IS; losartan: 0.5 μm). Samples were vortex-mixed for 30 secs and centrifuged at 10,000×g for 10 min at 4° C. Disappearance of intact prodrugs from these samples were performed on a Dionex ultra-high-performance LC system coupled with Q Exactive Focus orbitrap mass spectrometer (Thermo Fisher Scientific Inc., Waltham MA). […] The mobile phase consisted of 0.1% formic acid in water and 0.1% formic acid in acetonitrile. Pumps were operated at a flow rate of 0.4 mL/min for 9 min using gradient elution. The mass spectrometer controlled by Xcalibur software 4.0.27.13 (Thermo Scientific) was operated with a heated electrospray ionization (HESI) ion source in positive ionization mode. Quantification of the prodrugs were performed in the full-scan mode (from m/z 50 to 1600) by comparing t=0 samples with t=60 min samples.

nSMase2 = target: T1, nSMase2 (Mus musculus, UniProt Q9JJY3); assay: nSMase2 activity in striata of IL-1β-injected mice; assay type: in vivo; settings: P18 3 and 10 mg/kg DPTIP equivalent PO 30 min before intrastriatal IL-1β; 4 h
T1 construct: the striata dissected and analyzed for nSMase2 activity using a modification of previously published protocols; from tissue; host or cells: striata of GFAP-EGFP transgenic mice, homogenised and sonicated lysate
T1 sequence (Q9JJY3 1-655): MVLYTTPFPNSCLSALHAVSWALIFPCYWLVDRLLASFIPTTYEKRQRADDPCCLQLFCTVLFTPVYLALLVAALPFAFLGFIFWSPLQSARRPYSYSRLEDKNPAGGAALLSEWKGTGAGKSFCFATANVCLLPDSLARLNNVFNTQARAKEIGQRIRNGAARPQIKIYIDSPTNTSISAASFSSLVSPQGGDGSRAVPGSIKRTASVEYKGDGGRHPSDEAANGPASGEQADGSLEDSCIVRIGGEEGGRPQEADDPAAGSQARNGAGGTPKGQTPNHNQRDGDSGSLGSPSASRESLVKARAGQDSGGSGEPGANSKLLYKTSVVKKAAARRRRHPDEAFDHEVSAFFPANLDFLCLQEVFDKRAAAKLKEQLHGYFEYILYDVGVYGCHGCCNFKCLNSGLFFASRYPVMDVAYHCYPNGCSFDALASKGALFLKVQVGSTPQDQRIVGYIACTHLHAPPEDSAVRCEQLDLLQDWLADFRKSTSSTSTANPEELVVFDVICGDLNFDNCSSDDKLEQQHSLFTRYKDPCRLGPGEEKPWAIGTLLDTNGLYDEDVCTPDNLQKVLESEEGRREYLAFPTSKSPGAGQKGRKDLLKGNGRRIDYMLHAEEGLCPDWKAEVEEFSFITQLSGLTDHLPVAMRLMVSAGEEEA
Description: We have previously reported that nSMase2 regulates the secretion of extracellular vesicles from astrocytes in response to a focal inflammatory brain lesion. Rojas et al., 2018. Striatal injection of IL-1β in mice expressing GFAP-EGFP in astroglia evokes the release of GFP-labelled EVs that rapidly enter into plasma and target multiple organ systems. Dickens et al., 2017. We used this mouse model to evaluate the ability of P18 to inhibit EV release by the inhibition of nSMase2 activity in vivo. […] Interleukin-1β-injected mice, orally pre-dosed with P18 (30 min prior) were euthanized 4-hours post-IL-1β injection. GFP labeled (GFP+) EVs were quantified in plasma and nSMase2 activity was measured in the brain striata.
Rojas et al., 2018; Figuera-Losada et al., 2015. Briefly, mice striata were homogenized in ice-cold Tris-HCl buffer (0.1 M, pH 7.5) containing 250 mM sucrose, 10 mM EGTA (Research Products International, Prospect, IL), 100 μM sodium molybdate and protease inhibitors (Cell Signaling, Danvers, MA) using Biomasher II and then sonicated using Kontes' Micro Ultrasonic Cell Disrupter (three pulses of 15 s duration on ice with 30 s between pulses). […] At the end of the reaction period, the relative fluorescence units were measured at Ex 530 nm, Em 590 nm. […]

For `CCC1CC(N2CCCCC2)CC(CC)N1C(=O)Oc1c(OC)cc(-c2nc(-c3ccccc3)c(-c3cccs3)[nH]2)cc1OC` (centres unmarked) [Compound P18, 2,6-Dimethoxy-4-(5-phenyl-4-(thiophen-2-yl)-1H-imidazol-2-yl)phenyl 2′,6′-diethyl-[1,4′-bipiperidine]-1′-carboxylate], the “Stability in mouse (% remaining at 1h) Mean + Std Error, Liver” value [1] was 100 ± 3% and the “nSMase2 activity in brain striata” value (nSMase2) was “attenuated nSMase2 activity; also recorded: inhibition of brain nSMase2 activity; also recorded: reduced nSMase2 activity increased in response to IL-1β in a dose dependent manner; also recorded: significant inhibition of nSMase2 activity”.
